Laboratory results reported in patent US20050233413A1, “Neuroprotective polypeptides and methods of use” (priority 2002, published 2005).
Read-outs that look alike come from different tables or passages of the source. Where no end group is shown, it is not given here. [ ]: non-standard residue; d: D form. pS = N[C@@H](COP(=O)(O)O)C(=O)O

Assays:
Type in all cases: cell-based
[1] = system: F11 cells transfected with V642I-APP cDNA; test: F11 cell death by V642I-APP transfection (Trypan blue exclusion); conditions: for cytotoxicity by V642I-APP in the presence of peptide (% dead cells of total cells): each peptide 10 μM, V642I-APP alone 53.7±1.2%, without transfection 9.0±1.4; for % dead cells of total cells: 72 hr after transfection
Excerpt: (§1) In one assay, transfection with V642I-APP causes cell death in F11 neuronal hybrid cells. In the other, treatment with Aβ peptides causes cell death in primary cultured cortical neurons.
(§2) F11 cells, the hybrid of a rat embryonic-day-13 primary cultured primary neuron and a mouse neuroblastoma cell, are one of the best models for primary cultured neurons as they carry representative characteristics of primary neurons, such as generation of action potentials without differentiation by NGF [22]. They have been used in various studies of is neuronal functions. Using these cells, the underlying mechanisms for cytotoxicity by V642I-APP have well been analyzed. Cytotoxicity by V642 mutants of APP has also been confirmed in multiple different systems. F11 cells were grown in Ham's F-12 (GibcoBRL, Gaithersburg, Md.) plus 18% fetal bovine serum (FBS; Hyclone, Logan, Utah) and antibiotics, as described previously. F11 cells (7×10^4 cell/well in a 6-well plate cultured in Ham's F-12 plus 18% FBS for 12-16 hr) were transfected with plasmids encoding FAD genes by lipofection [FAD cDNA 2 μg, LipofectAMINE 4 μl, PLUS reagent 8 μl (GibcoBRL)] in the absence of serum for 3 hr, and were incubated with Ham's F-12 plus 18% FBS for 2 hr. Then, culture media were changed to Ham's F-12 plus 10% FBS with or without HN peptides, and cells were cultured for an additional 67 hr. Seventy-two hr after transfection, cell mortality was measured by Trypan blue exclusion assay, performed as follows. Cells were suspended by pipetting gently, and 50 μl of 0.4% (finally 0.08%) Trypan blue solution (Sigma, St Louis, Mo.) was mixed with 200 μl of the cell suspension at room temperature. Stained cells were counted within 3 min after the mixture with Trypan blue solution.

[2] = system: Aβ and V642I-APP
Excerpt: as §2
(§3) The primary culture of mouse cortical neurons was performed in poly-L-lysine-coated 24-well plates or 96-well plates (Sumitomo Bakelite, Akita, Japan), in the absence of serum and the presence of N2 supplement, as described previously. The purity of neurons by this method was >98%. Prepared neurons (for neurons seeded in 96-well plates: 2.5×10^4 or 5×10^4 cells/well, 100 μl culture medium/well; for neurons seeded in 24-well plates: 1.25×10^5 cells/well, 250 μl culture medium/well) were preincubated with or without 10 μM (in case for the experiment with 10 μM HN) synthetic HN for 16 hr, and treated with 25 μM Aβ in the presence or absence of 10 μM HN for 72 hr, respectively. As primary neurons were vulnerable to transient dryness during medium exchange, we treated neurons with 25 μM Aβ as follows. First, a half volume (50 μl for neurons in 96-well plates; 125 μl for neurons in 24-well plates) of old medium was discarded. Then, the same volume (50 μl for neurons in 96-well plates; 125 μl for neurons in 24-well plates) of prewarned fresh medium containing 10 μM HN and 50 μM Aβ (Aβ was directly resolved) was added to the culture. The Aβ peptides used at 25 μM to induce neurotoxicity formed aggregation in the medium during the cell culture at 37° C. for 72 hr. as described. The WST-8 cell viability assay was performed, using Cell Counting Kit-8 (Wako Pure Chemical Industries, Osaka, Japan), as described previously.
(§4) Calcein assay was performed with Calcein-AM {3′,6′-di-(O-acetyl)-2′,7′-bis [N,N-bis(carboxymethyl)aminomethyl] fluorescein, tetraacetoxymethyl ester; Dojindo}, as described previously. These assays were simultaneously performed in the experiments with neurons seeded in 96-well plates, as follows. Seventy-two hours after Aβ treatment, cells were added with the mixture of 10 μl WST-8 solution and 1 μl of 600 μM Calcein-AM. After 2 hr incubation in a CO2 incubator at 37° C., WST-8 absorbance was measured as OD450. After exchanging the medium to PBS to lower the background, Calcein-specific fluorescence (ex=485 nm, em=535 nm) was observed by fluorescence microscopy or measured by a spectrofluorometer (Wallac1420 ARVOsx Multi Label Counter). […]

[3] = system: primary cultured neurons treated with 25 μM Aβ1-43; conditions: for Calcein fluorescence, percentage of neurons without treatment: 72 hours, means±S.D.
Protocol: as §1, §3
Calcein assay was performed with Calcein-AM {3′,6′-di-(O-acetyl)-2′,7′-bis [N,N-bis(carboxymethyl)aminomethyl] fluorescein, tetraacetoxymethyl ester; Dojindo}, as described previously. These assays were simultaneously performed in the experiments with neurons seeded in 96-well plates, as follows. Seventy-two hours after Aβ treatment, cells were added with the mixture of 10 μl WST-8 solution and 1 μl of 600 μM Calcein-AM. After 2 hr incubation in a CO2 incubator at 37° C., WST-8 absorbance was measured as OD450. After exchanging the medium to PBS to lower the background, Calcein-specific fluorescence (ex=485 nm, em=535 nm) was observed by fluorescence microscopy or measured by a spectrofluorometer (Wallac1420 ARVOsx Multi Label Counter). Most cell viability data using Calcein assay and WST-8 assay were obtained from neurons seeded at 5×10^4 cells/well in 96-well plates (high-density neurons) and confirmed by both assays with the cells seeded at 2.5×10^4 cells/well (low-density neurons).
Some experiments for Calcein assay were performed with neurons seeded in 24-well plates. […] In most experiments using primary neurons, four independent experiments were performed and the means? S. D. of the results were discussed.

[4] = system: Aβ and four FAD genes (V642I-APP, NL-APP, M146L-PS1, and N141I-PS2); conditions: Table 5, marked *
Excerpt: as §2, §3, §4

[5] = 25 μM Aβ1-43 + 10 pM peptide, Aβ alone 8.9 ± 0.8
[6] = V642I-APP + 10 pM peptide, means±S.D., V642I-APP alone 52.9 ± 1.1

CC[C@H](C)[C@H](NC(=O)[C@H](CCC(=O)O)NC(=O)[C@H](CO)NC(=O)[C@@H](NC(=O)[C@H](CC(C)C)NC(=O)[C@H](CC(C)C)NC(=O)[C@H](CC(C)C)NC(=O)[C@H](CC(C)C)NC(=O)[C@H](CS)NC(=O)[C@H](CO)NC(=O)[C@H](Cc1ccccc1)NC(=O)CNC(=O)[C@H](CCCNC(=N)N)NC(=O)[C@@H]1CCCN1C(=O)[C@H](C)NC(=O)[C@@H](N)CCSC)[C@@H](C)O)C(=O)N[C@@H](CC(=O)O)C(=O)N[C@@H](CC(C)C)C(=O)N1CCC[C@H]1C(=O)N[C@H](C(=O)N[C@@H](CCCCN)C(=O)N[C@@H](CCCNC(=N)N)C(=O)N[C@@H](CCCNC(=N)N)C(=O)N[C@@H](C)C(=O)O)C(C)C [HN, reference compound]
cytotoxicity by V642I-APP in the presence of peptide (% dead cells of total cells) [1]: 11.0±0.1%

EFLIVIKSMAPRGFSALLLLTSEIDLPVKRRA [EF-HNA]
Full protection ([2]; Table 5, marked **): NE** (the corresponding peptide had no cytoprotective effect at 10 μM) | IC50 ([2]; Table 5, marked **): > 10000 nM

EFLIVIKSMAPRGFSCLLLLTGEIDLPVKKKK [EF-HNG-KKK]
IC50 [3]: ~1 nM | concentration of full neuroprotection against Aβ1-43 ([3]; 25 μM Aβ1-43): 10 to 100 nM | suppression of Aβ neurotoxicity in the presence of 100 μM EFLIVIKS ([3]; 25 μM Aβ1-43, EF-HN and EF-HNG at 10 μM, WST-8 and Calcein assays): could not suppress Aβ neurotoxicity at all | IC50 [1]: ~0.1 nM | concentration of full cytoprotection / complete suppression against V642I-APP ([1]; F11 cells): 10 nM | Full protection (minimal concentration that exerted full cytoprotection) ([2]; Table 5, marked **): ˜10 nM | potency relative to EF-HNG ([2]; times less potent than EF-HNG): ~10 times

MAPRGF(p-S)CLLLLT(p-S)EIDLPVKRRA (MAPRGF[pS]CLLLLT[pS]EIDLPVKRRA) [P-S7/14 HN]
Calcein fluorescence, percentage of neurons without treatment [3, 5]: 9.3 ± 0.4% | Calcein fluorescence, percentage of neurons without treatment ([3]; 25 μM Aβ1-43 + 100 pM peptide): 8.8 ± 0.3% | Calcein fluorescence, percentage of neurons without treatment ([3]; 25 μM Aβ1-43 + 1 nM peptide): 8.8 ± 0.2% | Calcein fluorescence, percentage of neurons without treatment ([3]; 25 μM Aβ1-43 + 10 nM peptide): 8.7 ± 0.3% | Calcein fluorescence, percentage of neurons without treatment ([3]; 25 μM Aβ1-43 + 100 nM peptide): 8.6 ± 0.2% | Calcein fluorescence, percentage of neurons without treatment ([3]; 25 μM Aβ1-43 + 1 μM peptide): 84.0 ± 5.8 % | Calcein fluorescence, percentage of neurons without treatment ([3]; 25 μM Aβ1-43 + 10 μM peptide): 103.3 ± 0.8 % | % dead cells of total cells [1, 6]: 54.8 ± 0.5% | % dead cells of total cells ([1]; V642I-APP + 100 pM peptide): 54.1 ± 1.5% | % dead cells of total cells ([1]; V642I-APP + 1 nM peptide): 52.9 ± 1.6% | % dead cells of total cells ([1]; V642I-APP + 10 nM peptide): 53.8 ± 3.1% | % dead cells of total cells ([1]; V642I-APP + 100 nM peptide): 38.2 ± 1.9 % | % dead cells of total cells ([1]; V642I-APP + 1 μM peptide): 22.7 ± 5.2 % | % dead cells of total cells ([1]; V642I-APP + 10 μM peptide): 11.8 ± 1.2 % | Full protection (minimal concentration that exerted full cytoprotection) ([2]; Table 5, marked **): ˜10 μM

MAPRGFSCLLLLT(p-S)EIDLPVKRRA (MAPRGFSCLLLLT[pS]EIDLPVKRRA) [P-S14 HN, p-S is phosphorylated L-Ser]
Calcein fluorescence, percentage of neurons without treatment [3, 5]: 8.6 ± 0.3% | Calcein fluorescence, percentage of neurons without treatment ([3]; 25 μM Aβ1-43 + 100 pM peptide): 8.6 ± 0.4% | Calcein fluorescence, percentage of neurons without treatment ([3]; 25 μM Aβ1-43 + 1 nM peptide): 8.9 ± 0.1% | Calcein fluorescence, percentage of neurons without treatment ([3]; 25 μM Aβ1-43 + 10 nM peptide): 8.6 ± 0.3% | Calcein fluorescence, percentage of neurons without treatment ([3]; 25 μM Aβ1-43 + 100 nM peptide): 8.6 ± 0.1% | Calcein fluorescence, percentage of neurons without treatment ([3]; 25 μM Aβ1-43 + 1 μM peptide): 85.8 ± 4.1 % | Calcein fluorescence, percentage of neurons without treatment ([3]; 25 μM Aβ1-43 + 10 μM peptide): 104.1 ± 1.7 % | % dead cells of total cells [1, 6]: 56.5 ± 4.1% | % dead cells of total cells ([1]; V642I-APP + 100 pM peptide): 56.3 ± 2.7% | % dead cells of total cells ([1]; V642I-APP + 1 nM peptide): 54.3 ± 1.2% | % dead cells of total cells ([1]; V642I-APP + 10 nM peptide): 53.4 ± 2.0% | % dead cells of total cells ([1]; V642I-APP + 100 nM peptide): 41.8 ± 1.8 % | Full protection (minimal concentration that exerted full cytoprotection) ([2]; Table 5, marked **): ˜10 μM

MAPRGF(p-S)CLLLLTSEIDLPVKRRA (MAPRGF[pS]CLLLLTSEIDLPVKRRA) [P-S7 HN]
Calcein fluorescence, percentage of neurons without treatment [3, 5]: 9.0 ± 0.9% | Calcein fluorescence, percentage of neurons without treatment ([3]; 25 μM Aβ1-43 + 100 pM peptide): 8.7 ± 0.8% | Calcein fluorescence, percentage of neurons without treatment ([3]; 25 μM Aβ1-43 + 1 nM peptide): 8.8 ± 0.9% | Calcein fluorescence, percentage of neurons without treatment ([3]; 25 μM Aβ1-43 + 10 nM peptide): 8.8 ± 0.6% | Calcein fluorescence, percentage of neurons without treatment ([3]; 25 μM Aβ1-43 + 100 nM peptide): 10.5 ± 0.9% | Calcein fluorescence, percentage of neurons without treatment ([3]; 25 μM Aβ1-43 + 1 μM peptide): 84.2 ± 6.8 % | Calcein fluorescence, percentage of neurons without treatment ([3]; 25 μM Aβ1-43 + 10 μM peptide): 103.3 ± 2.8 % | % dead cells of total cells [1, 6]: 53.7 ± 0.8% | % dead cells of total cells ([1]; V642I-APP + 100 pM peptide): 53.1 ± 1.7% | % dead cells of total cells ([1]; V642I-APP + 1 nM peptide): 54.8 ± 1.6% | % dead cells of total cells ([1]; V642I-APP + 10 nM peptide): 54.1 ± 1.4% | % dead cells of total cells ([1]; V642I-APP + 10 μM peptide): 11.6 ± 1.1 % | Full protection (minimal concentration that exerted full cytoprotection) [4]: ˜10 μM

(S14P)HN: HN derivative with Pro substitution at Ser14
cytotoxicity by V642I-APP in the presence of peptide (% dead cells of total cells) [1]: 12.5±1.0%

MAPRGFSCLLLLTREIDLPVKRRA [(S14R)HN]
cytotoxicity by V642I-APP in the presence of peptide (% dead cells of total cells) [1]: 52.6±1.0%

MAPRGFSALLLLTSEIDLPVKRRA [HNA, reference compound]
neuroprotective action against Aβ1-43 (in words) ([3]; 25 μM Aβ1-43, primary neurons): completely inactive | cytoprotective action against V642I-APP (in words) ([1]; F11 cells): completely inactive | Full protection [4]: NE* (the corresponding peptide had no cytoprotective effect at 10 μM) | IC50 ([4]; read-out: IC50): > 10000 nM

MAPRGFSCLLLLTEEIDLPVKRRA [(S14E)HN]
cytotoxicity by V642I-APP in the presence of peptide (% dead cells of total cells) [1]: 45.0±1.9%

MAPRGFSCLLLLTTEIDLPVKRRA [(S14T)HN]
cytotoxicity by V642I-APP in the presence of peptide (% dead cells of total cells) [1]: 54.0±2.3%

MAPRGF(D-Ser)CLLLLTSEIDLPVKRRA [D-Ser7 HN]
Full protection (minimal concentration that exerted full cytoprotection) [4]: ˜10 μM

MAPRGFSCLLLLTWEIDLPVKRRA [(S14W)HN]
cytotoxicity by V642I-APP in the presence of peptide (% dead cells of total cells) [1]: 54.5±4.2%

PRGFACLLLLTGEIDLP [S7A HNG17, PRGFACLLLLTGEIDLP]
IC50 [3]: ~1 nM | concentration of full neuroprotection against Aβ1-43 ([3]; 25 μM Aβ1-43): about 10 nM | Full protection (minimal concentration that exerted full cytoprotection) ([2]; Table 5, marked **): ˜10 nM
